From patent US20060234955A1, “Cardiac glycosides to treat cystic fibrosis and other il-8 dependent disorders” (priority 2002, published 2006)

Tests used:
[1] = test system: IL-8 from CFTE cells; assay: Hypersecretion of IL-8 from CFTE cells; conditions: qualitative
[2] = Solubility in ethanol
[3] = test system: NFκB; conditions: 1 μM concentration; variety of cultured cancer cells; cited from earlier work
[4] = test system: cat; assay: LD50, intravenous administration to the cat (Merck Index)
[5] = test system: cat; conditions: intravenous administration, Merck Index; cited from earlier work

Compound | hypersecretion of IL-8 from CFTE cells [1] | solubility [2] | TNFα-dependent activation of NFκB [3] | LD-50-defined toxicity (concentration) ([4]; as restated) [µM] | concentration corresponding to LD50 ([4]; assuming body weight is all water and uniform distribution) [nM] | LD50 [5] [mg/kg]
CCCn1c(=O)c2[nH]c(C3CCCC3)nc2n(CCC)c1=O [CPX, 1,3-Dipropyl-8-Cyclopentyl xanthine] | suppressed |  |  |  |  | 
CO[C@H]1C[C@H](O[C@H]2CC[C@@]3(C)[C@H](CC[C@@H]4[C@@H]3CC[C@]3(C)[C@@H](C5=CC(=O)OC5)[C@@H](OC(C)=O)C[C@]43O)C2)O[C@@H](C)[C@@H]1O [Compound I] |  | soluble in ethanol | suppresses | ≥ 0.6 | 600 | 0.3
